Test results taken from patent US7226761B2, “Manufacture of five-carbon sugars and sugar alcohols” (Danisco Sweeteners Oy, priority 1992, dated 2007).
Where two headings read alike, the source gives them in different places.

Key:
[1] = tested on: TKL1,2 deficient strain harboring the XDH encoding gene from P. stipitis on a multi-copy plasmid (H1057); conditions: for Polyols from glucose consumed in %: 25 μM IA
Description: TKL1,2 deficient strain H1055 carrying the pAOS67 multi-copy plasmid harboring the XDH encoding gene from P. stipitis (H1057) was cultivated in the presence of 25 μM IA (Fluka Chemie AG, Switzerland). The growth medium was SCD lacking histidine for plasmid selection and 7.65 g/l KNO3. Samples were withdrawn at the indicated time points, the OD600 measured, cells removed by centrifugation, and the growth medium samples were assayed for polyols by the Boehringer Mannheim D-sorbitol/xylitol kit and for glucose by the Boehringer Mannheim GOD-Perid kit.

DOG1 = target: T1, DOG1 (Saccharomyces cerevisiae, UniProt P38774); test: Specificity of DOG1 towards sugar phosphates in yeast cell extracts (phosphate release); format: biochemical, S. cerevisiae; conditions: 20 mM substrate; cell extract of H1514; relative to 2-deoxyglucose-6-P as 100%
T1 construct: expressed in transfected cells; host or cells: S. cerevisiae H1104 (W303-1B) transformed with plasmid B1020 (YEplac195, ADH1 promoter-DOG1-ADH1 terminator) = strain H1514; crude cell extract
T1 sequence (P38774 1-246): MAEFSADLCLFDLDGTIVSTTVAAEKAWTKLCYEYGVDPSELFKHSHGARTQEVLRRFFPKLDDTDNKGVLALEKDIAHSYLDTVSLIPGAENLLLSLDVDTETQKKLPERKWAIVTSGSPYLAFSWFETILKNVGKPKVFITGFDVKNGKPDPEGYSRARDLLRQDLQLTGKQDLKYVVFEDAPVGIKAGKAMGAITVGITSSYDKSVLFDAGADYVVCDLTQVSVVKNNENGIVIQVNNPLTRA
Description: The specificity of DOG1 towards xylulose-5-P, ribulose-5-P, ribose-5-P and 2-deoxyglucose-6-P was determined using 20 mM substrate concentrations. Yeast cell extracts were prepared as described in example 15, except that 50 mM imidazole-HCl, 10 mM MgCl2 buffer, pH 6.0 was used. 10 μl of extract and 210 μl of substrate (20 mM) in the same buffer was incubated for 30 min, 30° C. The reaction was stopped with final 2% of TCA and the phosphate released was measured using ammonium molybdate (15 mM), zinc acetate (100 mM), pH 5.0 as the reagent. The formation of molybdenum blue was measured at 350 nm, and quantified by phosphate standards (Sanz, P. et al., Yeast 10:1195–1202 (1994); Bencini, D. A. et al., Anal. Biochem. 132:254–258 (1983)).

[2] = Xylulose 5-phosphate reductase (XPDH/APDH) activity assay with NADH; format: biochemical; conditions: cell extract of transformed B. subtilis BD170; xylulose 5-phosphate usually 5 mM
Description: The strain BD 170 [pGTK24(MXD2)] as well as untransformed strain BD 170 was grown overnight on either LB or LB, containing 10% glucose, cell extracts were prepared and the XDH activity measured. The assay conditions for measuring XDH activity were: 30° C., 50 mM Tris-HCI, pH 7.0, 0.2 mM NADH and 10 mM D-xylulose. Changes of absorption at 340 nm were recorded; one unit of activity was defined as the amount of enzyme that catalyzed the reduction of one […] of substrate per minute under the conditions of assay (assuming the differential absorption coefficient NADH/NAD^+ to be equal to […]). The following levels of XDH activity were measured in the strain BD170 [pGTK24(MXD2)] grown on the two media: LB—0.5 U/mgproteins, LB-glucose 0.05–0.15 U/mgprotein. Thus, glucose appeared to repress the activity of the aldolase promoter 3–10 fold. No XDH activity could be detected in the strain BD170 grown on either of the two media.
B. subtilis strain BD170 was transformed with pGTK74(LRXPDH) and pGTK74(BHDH2). The transformants were grown overnight in LB containing 25 mg/liter kanamycin, cell extract were prepared by sonication and the activity of XPDH activity was measured. The conditions for measuring the XPDH activity were similar to those used for measuring the xylitol dehydrogenase activity except that xylulose 5-phosphate was used as the substrate (usually at 5 mM concentration) instead of xylulose. The activities were approximately 0.3 U/mg protein for the XPDH from L. rhamnosus and about 0.5 U/mg protein for B. halodurans enzyme.
Enterococcus avium ATCC 35655 was cultivated at 30° C. in 5 liters of a medium containing: peptone—10 g/l, yeast extract—5 g/l, beef extract 10 g/l, K2HPO4 2 g/l, NaCl—5 g/l, MgSO4—0.02 g/l, MnCl2—0.05 g/l, ammonium citrate 2 g/l, Tween 20—1.1 ml/l, xylitol—20g/l, pH 6.5. […]

[3] = Stereospecificity of D-xylulose 5-phosphate reduction, products dephosphorylated and analyzed by HPLC; format: biochemical; conditions: 10 mM xylulose 5-phosphate, 10 mM NADH, pH 7.0, 37° C.
Description: The stereospecificity of xylulose-phosphate reduction by the B. halodurans XPDH was verified by the following procedure. The reaction between D-xylulose 5-phosphate and NADH was conducted at 37° C. for several hours under the following conditions: 100 mM Tris-HC buffer, pH 7.0, 10 mM xylulose 5-phosphate, 10 mM NADH, […] the enzyme lysate. The reaction products were dephosphorylated with alkaline phosphatase and analyzed by HPLC. […] It should be noted that among the highest-scoring four homologues of the L. rhamnosus XPDH, the enzyme from B. holodurans is the least homologous. This can be interpreted as an indication that the other three homologues (SEQ ID NO:51, 52 and 53) are most probably also xylitol-phosphate dehydrogenases.
The stereospecificity of D-xylulose 5-phosphate reduction by the E. avium arabitol-phosphate dehydrogenase was verified by the following procedure. The reaction between D-xylulose 5-phosphate and NADH was conducted at 37° C. for several hours under the following conditions: 100 mM Tris-HCl buffer, pH 7.0, 10 mM xylulose 5-phosphate, 10 mM NADH, 1U of the enzyme. The reaction products were dephosphorylated with alkaline phosphatase and analyzed by HPLC. […] There are no other arabitol-phosphate dehydrogenases described in the art.
Both arabitol-phosphate dehydrogenase genes were expressed using the same tools and methods as those used for the expression of xylitol-phosphate dehydrogenases (Example 26). Briefly, the coding regions of the two arabitol-phosphate dehydrogenase genes were amplified using the chromosomal DNA of the microorganism from which the enzyme was isolated and the appropriate PCR primers. In the case of E. avium the primers were oAPDH 51 […] SEQ ID NO: 71) and the anti-sense primer oAPDH 31 […]) SEQ ID NO: 72. For B. halodurans, the sense primer was oBHDH 5 ([…], SEQ ID NO: 73) and the anti-sense primer was oBHDH 3 ([…], SEQ ID NO: 74). […] The stereospecificity of D-xylulose 5-phosphate reduction by the previously unknown enzyme from B. halodurans was determined as described in Example 30.

## O=C(O)CI [iodacetate, iodoacetate]
[1]; 28 h
  Polyols from glucose consumed in %: 0.45%
[1]; 45 h
  Polyols from glucose consumed in %: 0.74%
[1]; 52 h
  Polyols from glucose consumed in %: 0.57%
[1]; 69 h
  Polyols from glucose consumed in %: 0.72%
[1]; 77 h
  Polyols from glucose consumed in %: 0.87%
[1]; 93 h
  Polyols from glucose consumed in %: 0.93%
[1]; 100 h
  Polyols from glucose consumed in %: 1.13%
[1]; in the presence of iodoacetate
  glucose consumed metabolised to polyols (xylitol+part of ribitol): 1.2%
[1]; in the presence of iodoacetate vs without
  increase in polyol production: about 30%

## O=C(CO)[C@@H](O)[C@H](O)COP(=O)(O)O [xylulose-5-P, Xylulose-5-phosphate]
DOG1
  Relative activity (20 mM): 15%

B1: XPDH from L. rhamnosus: xylitol-phosphate dehydrogenase from Lactobacillus rhamnosus, SEQ ID NO:49 (protein, listed as Lactobacillus rhamnosus)
chain: MKASMLEDLNKFSVKEIDIPSPKKDEVVVKVMAAGTCGSDSHKMISGWKYGYPAVMGHEFSGIVTQLGENVSNVSVGQHVAVAPFIPCFKCHYCQIGLFQMCENYSMLGQQKFGGFEQYVSVPARNVLDIGKMSFEEGALIEPMAVAAHAVMGIKPELGDTVAVFGLGTVGDLVVRLLISSGATNVIGIDIDDQKLEKGLDEGCTHVINSAKESLEEKIMEYTDGLGVDISMECAGSKITEEQTLLVTKRRGKVGFVGIAYSDVLLHQKAFENIFRHELTVTGFWNSYSAPFPGREWTNSIQLVNRGRIKIKDLITHRFELEDMQKAFNMITTRSESFNKVMFFPNGIN
[2]
  XPDH activity: approximately 0.3 U/mg protein

B2: B. halodurans enzyme: xylitol-phosphate dehydrogenase from B. halodurans, SEQ ID NO:50, expressed from pGTK74(BHDH2) (protein)
chain: MKALNLYGIQDLRFEETPAPSIEHDDDIIIKVKAVGICGSDLSRYKKLGPYVPGMTFGHEFAGEVVKIGRSVTGFSIGDRVAACPTYTCGQCRYCQLGEPTRCERLSVIGARHPGAYAEYVKLPAKHVIPLPNVVNYDEAALIEPASVVAHGFYRTNIKPGASVAIMGVGSIGLLAVQWAKIFGATTVFAIDIDEQKLNVANQLGADVLISSLQRPAHKQILEYTNGIGVDVAVESAGTPSTSAQVFALPKKGGEVVFLGIPYADVQIERFYFEKIVRNELHVYGSWNALSSPFPGKEWATTIHYMSSGQLNVAPMISYRLPLAKGPETFQQIAKGELKPTKVLFYPEKLSERK
modifications: Bacillus halodurans
[2]
  XPDH activity: about 0.5 U/mg protein
[3]
  products found in the reaction mixture / stereospecificity: Only xylitol and xylulose (corresponding to the unreacted xylulose 5-phosphate) but no arabitol were found

B3: enzyme from B. halodurans: D-arabitol-phosphate dehydrogenase from B. halodurans, SEQ ID NO:70, expressed from pGTK74(BHDH) (protein)
chain: MKALVKTQHGTGHFAVQEKPEPTPGKHQVKIKVKYTGVCGSDIHTYEGHYPVAAPVTLGHEFSGEIVELGEGVTGFNVGDRVTSETTYSICGKCSYCTSGDYNLCSHRKGLGNQQDGSFAKYVIARQESLHHLPAGVDDRSAAMTEPLACTHHAIAKTSINKGDLVVVTGPGPIGLLAAQVAKSHGGTVIITGLSNDQVRLKKAKEVGIDYAIDTQEVDIKELVSELTDGYGADVVLECSGAVPAAKQGIDLLRKKGQYAQVGLFAQPEIQFNFEKIIQKEISVVGSRSQKPADWEPALSLLNEKKVNAKTLVTHEYTISEWDKAYHAIKSGEAIKVLLTPID
modifications: Bacillus halodurans (deduced sequence)
[3]
  products found in the reaction mixture / stereospecificity: this enzyme is indeed a D-arabitol-phosphate dehydrogenase
